# Source: ChEMBL document CHEMBL3046250, “Synthesis and anticonvulsant evaluation of 3-substituted-4-(4-hexyloxyphenyl)-4H-1,2,4-triazoles” (Med Chem Res, 2009)
# Columns and labels:
# Mus musculus [1] = assay: Anticonvulsant activity in ip dosed Mus musculus C57B/6 (mouse) assessed as protection against maximal electroshock-induced seizures; assay type: functional; settings: C57B/6, ip
# [2] = Protective index, ratio of TD50 for neurotoxicity to ED50 for anticonvulsant activity in ip dosed Mus musculus C57B/6 (mouse); assay type: toxicity, organism-based; settings: in vivo, read-out: Ratio TD50/ED50
# [3] = Neurotoxicity in ip dosed Mus musculus C57B/6 (mouse) assessed as inability to maintain equilibrium measured after 30 min by rotarod test; assay type: toxicity, organism-based; settings: in vivo
# Mus musculus [4] = assay: Anticonvulsant activity in Mus musculus (mouse) assessed protection against subcutaneous pentylenetetrazole-induced seizures; assay type: functional; settings: sc
# [5] = Neurotoxicity in Mus musculus (mouse) by rotarod test; assay type: toxicity, organism-based; settings: in vivo
Structure (SMILES),ED50 (Mus musculus [1]) [mg/kg],selectivity ratio [2],TD50 at 0.5 h [3] [mg/kg],ED50 (Mus musculus [4]) [mg/kg],TD50 [5] [mg/kg]
CCCCCCCc1nncn1-c1ccc(OCCCCCC)cc1,> 40,,,,
CCCCCCOc1ccc(-n2cnnc2CCC)cc1,5.7,11.5,65.7,,
CCCCCCOc1ccc(-n2cnnc2)cc1,9.8,11.4,112,,
CCCCCCOc1ccc(-n2cnnc2C)cc1,22.8,4.9,114,,
CCCCCCOc1ccc(-n2cnnc2-c2ccc(OC)cc2)cc1,15.8,7.6,120,,
CCCCCCOc1ccc(-n2cnnc2CCCCCC)cc1,> 40,,,,
CCCCCCOc1ccc2c(c1)CCc1nncn1-2,,2.2,,,
CCCCCCOc1ccc(-n2cnnc2-c2ccccc2)cc1,19,7.2,137,,
CCCCCCOc1ccc(-n2cnnc2CC)cc1,,4.7,,,
CCCCCCOc1ccc(-n2cnnc2-c2ccccc2F)cc1,20.2,5,101,,
c1ccc(COc2ccc3c(c2)CCc2nncn2-3)cc1,,,,24,
CCCCCCOc1ccc(-n2cnnc2-c2ccc(Cl)cc2)cc1,19.7,6.9,137,,
CCCCCCOc1ccc(-n2cnnc2CCc2ccccc2)cc1,27.4,5.7,158,,
CCCCCCOc1ccc(-n2cnnc2CCCC)cc1,13.6,8.1,110,,
O=C1CCc2cc(OCc3ccccc3)ccc2N1,,,,,> 300
CCCCCCOc1ccc(-n2cnnc2-c2cccc(F)c2)cc1,27.4,3.8,104,,
CCCCCCCCCc1nncn1-c1ccc(OCCCCCC)cc1,> 40,,,,
CCCCCCOc1ccc(-n2cnnc2-c2ccc(C)cc2)cc1,11.4,8.8,101,,
CCCCCCOc1ccc(-n2cnnc2-c2ccccc2Cl)cc1,13.2,6.9,91.2,,
CCCCCCOc1ccc(-n2cnnc2CCCCC)cc1,32.8,5.8,189,,
CCCCCCOc1ccc(-n2cnnc2-c2ccc(F)cc2)cc1,22,4.2,91.3,,
CCCCCCOc1ccc(-n2cnnc2Cc2ccccc2)cc1,19,6.9,131,,
